Assay results as given in US9862713B2, “Substituted bicyclic heteroaryl compounds as RXR agonists” (CONNEXIOS LIFE SCIENCES PVT. LTD., priority 2014, dated 2018).

Tested on: hRXR α, β, or γ
Assay: Transactivation assay (RARE-Luc dual luciferase reporter in HEK-293 cells), activity relative to LG268
Type: cell-based, human
Details: compound at 1 µM, 24 h; luciferase activity expressed relative to LG268
Procedure: HEK-293 cells (ATCC) were seeded one day prior to transfection. For assessing EC50 of activation of RXR isoforms 2 μg of hRXR α, β, or γ (OriGENE, USA) over-expressing vector, 1 μg of plasmid expressing firefly luciferase under RARE element (RARE-Luc) and 25 ng of renilla luciferase vector (QIAGEN, USA) were co-transfected using lipofectamine reagent. Post 24 h of transfection, cells were treated with different concentrations of RXR agonists (100 nM, 300 nM and 1 uM) for 24 h followed by estimation of luciferase activity using Dual Luciferase Reporter Assay System (Promega). Luciferase activity was normalized to that of renilla luciferase. The activities of the RXR compounds were expressed relative to LG268, a known RXR agonist.

Row | Structure (SMILES) | Activity at 1 µM
1 | CCN(c1ccc(C(=O)O)cc1)c1cc2c(s1)C(C)(C)CCC2(C)C [Compound 27, 4-[Ethyl(4,4,7,7-tetramethyl-4,5,6,7-tetrahydro-1-benzothiophen-2-yl)amino]benzoic acid] | ***** (>1)
2 | Cc1c(-n2nnc3cc(C(=O)O)ccc32)sc2c1C(C)(C)CCC2(C)C [Compound 28, 1-(3,4,4,7,7-Pentamethyl-4,5,6,7-tetrahydro-1-benzothiophen-2-yl)-1H-benzotriazole-5-carboxylic acid] | * (<0.7)
3 | Cc1c(/C=C/c2ccc(C(=O)O)cc2)sc2c1C(C)(C)CCC2(C)C [Compound 29, 4-[(E)-2-(3,4,4,7,7-Pentamethyl-4,5,6,7-tetrahydro-1-benzothiophen-2-yl)ethenyl]benzoic acid] | ***** (>1)
4 | Cc1c(/C=C\c2ccc(C(=O)O)cc2)sc2c1C(C)(C)CCC2(C)C [Compound 30, 4-[(Z)-2-(3,4,4,7,7-Pentamethyl-4,5,6,7-tetrahydro-1-benzothiophen-2-yl)ethenyl]benzoic acid] | ***** (>1)
5 | Cc1c(C2CC2c2ccc(C(=O)O)cc2)sc2c1C(C)(C)CCC2(C)C (centres unmarked) [Compound 31, 4-[2-(3,4,4,7,7-Pentamethyl-4,5,6,7-tetrahydro-1-benzothiophen-2-yl)cyclopropyl]benzoic acid] | ** (>0.7 and <0.8)
6 | CCn1c(-c2ccc(C(=O)O)cc2)ccc1-c1sc2c(c1C)C(C)(C)CCC2(C)C [Compound 32, 4-[1-Ethyl-5-(3,4,4,7,7-pentamethyl-4,5,6,7-tetrahydro-1-benzothiophen-2-yl)-1H-pyrrol-2-yl]benzoic acid] | * (<0.7)
7 | CN(c1ccc(C(=O)O)cc1)c1nc2c(s1)C(C)(C)CCC2(C)C [Compound 33, 4-[Methyl(4,4,7,7-tetramethyl-4,5,6,7-tetrahydro-1,3-benzothiazol-2-yl)amino]benzoic acid] | *** (>0.8 and <0.9)
8 | CN(c1ccc(C(=O)O)cc1)c1nc2c(s1)C(C)(C)C=CC2(C)C [Compound 34, 4-[Methyl(4,4,7,7-tetramethyl-4,7-dihydro-1,3-benzothiazol-2-yl)amino]benzoic acid] | ** (>0.7 and <0.8)
9 | CCOC1CC(C)(C)c2sc(N(C)c3ccc(C(=O)O)cc3)nc2C1(C)C (centres unmarked) [Compound 35, 4-[(5-Ethoxy-4,4,7,7-tetramethyl-4,5,6,7-tetrahydro-1,3-benzothiazol-2-yl)(methyl)amino]benzoic acid] | *** (>0.8 and <0.9)
10 | CC1(C)CCC(C)(C)c2sc(N(c3ccc(C(=O)O)cc3)C3CC3)nc21 [Compound 36, 4-[Cyclopropyl(4,4,7,7-tetramethyl-4,5,6,7-tetrahydro-1,3-benzothiazol-2-yl)amino]benzoic acid] | ***** (>1)
11 | CC1(C)CCC(C)(C)c2sc(N(c3ccc(C(=O)O)cn3)C3CC3)nc21 [Compound 37, 6-[Cyclopropyl(4,4,7,7-tetramethyl-4,5,6,7-tetrahydro-1,3-benzothiazol-2-yl)amino]pyridine-3-carboxylic acid] | ***** (>1)
12 | CC1(C)CCC(C)(C)c2sc(N(CC3CC3)c3ccc(C(=O)O)cc3)nc21 [Compound 38, 4-[(Cyclopropylmethyl) (4,4,7,7-tetramethyl-4,5,6,7-tetrahydro-1,3-benzothiazol-2-yl)amino]benzoic acid] | *** (>0.8 and <0.9)
13 | CCN(c1ccc(C(=O)O)cn1)c1nc2c(s1)C(C)(C)CCC2(C)C [Compound 39, 6-[Ethyl(4,4,7,7-tetramethyl-4,5,6,7-tetrahydro-1,3-benzothiazol-2-yl)amino]pyridine-3-carboxylic acid] | ***** (>1)
14 | CCN(c1ccc(C(=O)O)cn1)c1nc2c(s1)C(C)(C)CC(=O)C2(C)C [Compound 41, 6-[Ethyl(4,4,7,7-tetramethyl-5-oxo-4,5,6,7-tetrahydro-1,3-benzothiazol-2-yl)amino]pyridine-3-carboxylic acid] | * (<0.7)
